Counter-ions that a name gives are not always drawn.

The assay relates to scopolamine-induced amnesia in mice. The experiment in a line: Elevated plus maze (transfer latency) in scopolamine-induced amnesia mice. The following applies: donepezil hydrochloride 3 mg/kg p.o., 7-day pre-treatment; p<0.001.

Method: Groups III-V mice were dosed every 24 h interval with respective drugs for 7 consecutive days. On day 7, amnesia was induced in all the groups except the control group by intraperitoneal injection of scopolamine (1 mg/kg) 30 minutes after the respective treatments. 30 minutes later, elevated plus maze (EPM) was carried out to assess the cognitive function. At the end of experiment, mice were sacrificed; serum and brain homogenates were used for further analysis.
Briefly, the acquisition trail (day 6) was carried out by placing the mouse at the end of an open arm. The time taken by the mouse to enter any of the closed arms was taken as transfer latency. Cutoff time allotted for each mouse was 180 s. Retention trail was carried out 24 h after the first trail (Day 7, 30 min after scopolamine treatment). The transfer latency was determined in a similar manner as mentioned before. Shortened transfer latency was considered as an index of memory improvement.
In this study, EPM was applied as a behavioral model to assess learning and memory.

Take `COc1cc2c(cc1OC)C(=O)C(CC1CCN(Cc3ccccc3)CC1)C2` (stereo not shown) [donepezil, donepezil hydrochloride]: the “reduction of latency period (transfer latency) compared to scopolamine control group” value is 82.45%.

(Values after patent US11896600B2, “Composition and method of using eicosanoyl-5-hydroxytryptamide for treating neurodegenerative disorders” (Vidya Herbs, Inc., priority 2019, dated 2024).)
